Experimental data reported in patent publication US20260365637A1, “DUAL EZH2-HSP90 INHIBITORS” (TAIPEI MEDICAL UNIVERSITY, priority 2023, published 2026).
“Also recorded” adds a separate entry of the source.

Tests used:
[1] = molecular target: EZH2 (Core Histone) (Homo sapiens, UniProt Q15910); experiment: EZH2 inhibition assay (Reaction Biology Corporation); type: biochemical
Protocol: The EZH2 inhibitory ability of the synthesized adduct was assessed by Reaction Biology Corporation, Malvern, PA (http://www.reactionbiology.com).

[2] = test system: Pt3R cells; experiment: Itraq-based proteomics analysis of Pt3R cells; type: cell-based, human; parameters: M059/DMSO, P4HA2 (O15460) / M059/DMSO, ATP6V1E1 (P36543) / M059/DMSO, HSPH1 (Q92598) / M059/DMSO, ACTB (P60709) / M059/DMSO, HSPB1 (P04792) / M059/DMSO, S100A10 (P60903) / M059/DMSO, LRPAP1 (P30533) / M059/DMSO, GIPC1 (O14908) / M059/DMSO, HSPE1 (P61604) / M059/DMSO, OLA1 (Q9NTK5) / M059/DMSO, EEF1B2 (P24534) / M059/DMSO, PSMD3 (O43242) / M059/DMSO, ZYX (Q15942) / M059/DMSO, HK1 (P19367) / M059/DMSO, ARF3 (P61204) / M059/DMSO, TWF1 (Q12792) / M059/DMSO, HSPA8 (P11142) / M059/DMSO, CTNNB1 (P35222) / M059/DMSO, EHD1 (Q9H4M9) / M059/DMSO, HSPA4 (P34932) / M059/DMSO, PSMD14 (O00487): dose or concentration left out as unconfirmed
Protocol: Pt3 GBM cells were isolated from a GBM patient as described in our previous study. Temozolomide (TMZ)-resistant phenotype of Pt3R cells had been validated previously. Pt3 cells were cultured in DMEM-supplemented with 10% fetal bovine serum, 100 μg/ml streptomycin and 100 μg/ml penicillin G. Pt3R cells were cultured in the presence of 100 μM of TMZ (MilliporeSigma Corporate, St. Louis, MO, USA).
RNA was isolated using the RNA extracting kit (Zymo Research, Irvine, CA, USA), and subjected to RNA-seq serviced by BIOTOOLS Co., Ltd (New Taipei City, Taiwan). Cell pellets were collected and subjected to proteomic analysis serviced by BIOTOOLS Co., Ltd. The comparison in gene expression between Pt3 and Pt3R was performed using RNA seq, and has been described previously.
Having identified the desired chemical probe 7, we assessed global protein expression using Itraq-based proteomics analysis to estimate whether 7 suppresses HSP90 (Pt3R cell lines). […] This observation is aligned with the results attained with geldanamycin treatment (a well-known HSP90 inhibitor) (Cheung, C. H. A.; Chen, H.-H.; Cheng, L.-T.; Lyu, K. W.; Kanwar, J. R.; Chang, J.-Y. TargetingHsp90 with small molecule inhibitors induces the over-expression of the anti-apoptotic molecule, survivin, in human A549, HONE-1 and HT-29 cancer cells. Mol. Cancer 2010, 9 (1), 1-11; Kuroyanagi, G.; Tokuda, H.; Fujita, K.; Kawabata, T.; Sakai, G.; Kim, W.; Hioki, T.; Tachi, J; Matsushima-Nishiwaki, R.; Otsuka, T. Upregulation of TGF-β-induced HSP27 by HSP90 inhibitors in osteoblasts. BMC Musculoskelet. Disord. 2022, 23 (1), 495) and confirms the HSP90-suppressive activity of compound 7 in GBM cells.

[3] = test system: Pt3 cells; experiment: Cellular ROS assay (DHR, flow cytometry) in Pt3 cells; type: cell-based, human; details: 48 h, FIG. 7A
From the text: Dihydrorhodamine 123 (DHR; Thermo Fisher Scientific, Waltham, MA, USA) was used to label cellular ROS detected by flow cytometry, and the MitoSOX reagent (Thermo Fisher Scientific) was used to label mitochondrial ROS [55].
(§1) Treatment concentration of MPT1A059 was indicated.

[4] = test system: Pt3R cells; experiment: Cell cycle analysis (propidium iodide, flow cytometry); type: cell-based, human; details: 24 h, FIG. 5E
[5] = test system: Pt3R cells; experiment: Western blotting in Pt3R cells; type: cell-based, human
From the text: The details of the procedure are described in our previous study. Primary antibodies, anti-CENPA, anti-CENPE, anti-CENPF and anti-CENPI antibodies, were purchased from abcam (Cambridge, UK); anti-CDK1 and anti-cyclin B1 antibodies were purchased from Santa Cruz Biotechnology, Inc. (Dallas, TX, USA); anti-EZH2 and anti-H3K27^me3 antibodies were purchased from GeneTex International Corporation (Hsinchu, Taiwan).
Furthermore, the impact of compound 7 treatment on centromere proteins (CENPs) was assessed. As such, CENPs are the main constituent proteins of the kinetochore, which are essential for cell division. CENP expression is elevated in GBM tissues and correlated with unfavourable overall survival in glioma patients.
as §1

[6] = test system: Pt3R cells; experiment: Cell viability / cytotoxicity of TMZ-resistant Pt3R cells (CCK8); type: cell-based, human

Chain of EZH2 (Core Histone) (Q15910 whole entry): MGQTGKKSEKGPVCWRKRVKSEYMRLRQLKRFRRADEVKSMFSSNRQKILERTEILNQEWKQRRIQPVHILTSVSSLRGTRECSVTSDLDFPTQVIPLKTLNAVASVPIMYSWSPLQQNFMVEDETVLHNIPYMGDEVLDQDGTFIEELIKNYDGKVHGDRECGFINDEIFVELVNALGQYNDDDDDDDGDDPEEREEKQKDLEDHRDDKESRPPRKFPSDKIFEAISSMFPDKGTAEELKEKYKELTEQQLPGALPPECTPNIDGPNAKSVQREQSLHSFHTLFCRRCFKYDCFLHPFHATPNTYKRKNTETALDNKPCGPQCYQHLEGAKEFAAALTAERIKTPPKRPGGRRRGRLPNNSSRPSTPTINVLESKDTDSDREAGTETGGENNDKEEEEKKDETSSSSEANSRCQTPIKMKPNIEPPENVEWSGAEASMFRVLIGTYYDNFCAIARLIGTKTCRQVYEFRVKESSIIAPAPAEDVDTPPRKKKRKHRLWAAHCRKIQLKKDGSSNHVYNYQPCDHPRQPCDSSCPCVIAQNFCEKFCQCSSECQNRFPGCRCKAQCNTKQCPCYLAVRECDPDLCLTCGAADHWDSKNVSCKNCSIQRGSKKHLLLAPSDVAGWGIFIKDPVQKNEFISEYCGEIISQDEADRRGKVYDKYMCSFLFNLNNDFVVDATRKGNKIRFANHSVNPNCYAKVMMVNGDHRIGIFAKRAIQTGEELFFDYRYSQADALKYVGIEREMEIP
Chain of EZH2 (Core Histone) (O75530 whole entry partner): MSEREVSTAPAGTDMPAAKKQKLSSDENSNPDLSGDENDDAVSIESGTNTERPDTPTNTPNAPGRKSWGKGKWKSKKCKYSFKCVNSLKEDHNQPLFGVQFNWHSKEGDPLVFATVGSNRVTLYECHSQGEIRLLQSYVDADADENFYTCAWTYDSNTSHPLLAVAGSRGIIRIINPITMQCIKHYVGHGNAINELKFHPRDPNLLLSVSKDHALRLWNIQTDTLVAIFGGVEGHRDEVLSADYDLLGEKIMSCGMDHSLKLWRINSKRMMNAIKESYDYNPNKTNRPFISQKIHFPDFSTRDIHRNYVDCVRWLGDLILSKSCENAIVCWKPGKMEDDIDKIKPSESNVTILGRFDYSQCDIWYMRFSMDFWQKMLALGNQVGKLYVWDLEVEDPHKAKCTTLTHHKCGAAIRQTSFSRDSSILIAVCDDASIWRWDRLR
Chain of EZH2 (Core Histone) (Q15022 whole entry partner): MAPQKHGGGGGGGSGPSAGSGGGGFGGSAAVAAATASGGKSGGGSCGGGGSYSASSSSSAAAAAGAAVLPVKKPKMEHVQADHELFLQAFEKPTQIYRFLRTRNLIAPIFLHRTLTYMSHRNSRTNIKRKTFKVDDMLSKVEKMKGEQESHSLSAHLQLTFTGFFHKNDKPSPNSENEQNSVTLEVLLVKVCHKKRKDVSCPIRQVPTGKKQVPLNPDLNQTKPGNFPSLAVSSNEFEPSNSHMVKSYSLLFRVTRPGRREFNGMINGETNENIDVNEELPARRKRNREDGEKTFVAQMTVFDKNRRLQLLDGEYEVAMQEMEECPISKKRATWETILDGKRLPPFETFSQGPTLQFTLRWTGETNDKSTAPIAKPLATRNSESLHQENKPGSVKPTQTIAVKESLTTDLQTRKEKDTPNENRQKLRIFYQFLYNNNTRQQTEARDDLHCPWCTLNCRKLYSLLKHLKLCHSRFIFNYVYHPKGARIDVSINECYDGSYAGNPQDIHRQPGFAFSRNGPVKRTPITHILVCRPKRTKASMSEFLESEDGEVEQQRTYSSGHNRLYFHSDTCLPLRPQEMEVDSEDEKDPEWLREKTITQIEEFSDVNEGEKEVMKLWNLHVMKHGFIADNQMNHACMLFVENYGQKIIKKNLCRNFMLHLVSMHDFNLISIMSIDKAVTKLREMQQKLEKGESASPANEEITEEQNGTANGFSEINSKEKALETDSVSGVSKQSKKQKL
Chain of EZH2 (Core Histone) (Q09028 whole entry partner): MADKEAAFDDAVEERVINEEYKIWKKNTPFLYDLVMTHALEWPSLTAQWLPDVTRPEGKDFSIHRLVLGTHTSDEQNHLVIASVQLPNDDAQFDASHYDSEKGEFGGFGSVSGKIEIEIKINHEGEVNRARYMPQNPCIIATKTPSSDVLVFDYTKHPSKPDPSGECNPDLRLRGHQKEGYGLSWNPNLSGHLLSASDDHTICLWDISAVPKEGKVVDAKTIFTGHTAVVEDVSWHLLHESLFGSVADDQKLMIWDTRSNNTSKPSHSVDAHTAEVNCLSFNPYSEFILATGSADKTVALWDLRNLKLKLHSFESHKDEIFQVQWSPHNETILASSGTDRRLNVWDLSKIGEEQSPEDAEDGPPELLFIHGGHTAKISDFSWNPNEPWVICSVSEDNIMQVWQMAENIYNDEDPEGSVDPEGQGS
Chain of EZH2 (Core Histone) (Q6ZN18 whole entry partner): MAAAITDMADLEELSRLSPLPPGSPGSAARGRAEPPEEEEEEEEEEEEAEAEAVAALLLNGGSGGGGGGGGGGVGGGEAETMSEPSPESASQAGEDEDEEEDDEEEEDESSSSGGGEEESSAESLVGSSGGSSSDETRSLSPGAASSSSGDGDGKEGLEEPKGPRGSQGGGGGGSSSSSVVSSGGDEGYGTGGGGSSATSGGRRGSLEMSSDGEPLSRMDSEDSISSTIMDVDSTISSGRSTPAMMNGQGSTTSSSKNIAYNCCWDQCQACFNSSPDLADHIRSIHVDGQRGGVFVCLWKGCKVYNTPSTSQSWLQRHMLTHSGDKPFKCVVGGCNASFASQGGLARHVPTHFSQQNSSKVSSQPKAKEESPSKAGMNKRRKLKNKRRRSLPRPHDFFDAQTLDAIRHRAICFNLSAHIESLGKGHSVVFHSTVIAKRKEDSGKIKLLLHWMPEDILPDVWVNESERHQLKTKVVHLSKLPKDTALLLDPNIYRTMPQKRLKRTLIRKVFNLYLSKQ

## CCN(c1cc(-c2cccc(N(C)C(=O)c3cc(C(C)C)c(O)cc3O)c2)cc(C(=O)NCc2c(C)cc(C)[nH]c2=O)c1C)C1CCOCC1 [Compound 7, 3′-(2,4-dihydroxy-5-isopropyl-N-methylbenzamido)-N-((4,6-dimethyl-2-oxo-1,2-dihydropyridin-3-yl)methyl)-5-(ethyl(tetrahydro-2H-pyran-4-yl)amino)-4-methyl-[1,1′-biphenyl]-3-carboxamide]
[1]
  IC50: 6.29 nM
[2]; Pt3R cells
  HSP family proteins (HSPA1A, HSPA8, HSP90AA1, HSPB1, HSPH1 and HSPA4): significantly increased
[2]; decreased
  M059/DMSO, PA2G4 (Q9UQ80): 0.628
[2]; increased
  M059/DMSO, ACTB (P60709): 1.657
  M059/DMSO, ARF3 (P61204): 1.944
  M059/DMSO, ATP5IF1 (Q9UII2): 1.646
  M059/DMSO, ATP6V1E1 (P36543): 1.599
  M059/DMSO, CTNNB1 (P35222): 1.550
  M059/DMSO, EEF1B2 (P24534): 1.792
  M059/DMSO, EHD1 (Q9H4M9): 1.555
  M059/DMSO, GIPC1 (O14908): 1.699
  M059/DMSO, HK1 (P19367): 1.921
  M059/DMSO, HSP90AA1 (P07900): 1.958
  M059/DMSO, HSPA4 (P34932): 1.561
  M059/DMSO, HSPA8 (P11142): 2.096
  M059/DMSO, HSPB1 (P04792): 1.661
  M059/DMSO, HSPE1 (P61604): 1.710
  M059/DMSO, HSPH1 (Q92598): 1.642
  M059/DMSO, LRPAP1 (P30533): 1.667
  M059/DMSO, OLA1 (Q9NTK5): 1.745
  M059/DMSO, P4HA2 (O15460): 1.588
  M059/DMSO, PSMD3 (O43242): 1.801
  M059/DMSO, PSMD14 (O00487): 1.579
  M059/DMSO, S100A10 (P60903): 1.664
  M059/DMSO, TWF1 (Q12792): 1.995
  M059/DMSO, ZYX (Q15942): 1.903
[3]
  ROS level: increased
[4]
  cell cycle: induced cell cycle arrest at the M phase
[5]; FIG. 5D
  CDK1 and cyclin B1 expression: downregulated
[5]; FIG. 7B
  EZH2 expression and EZH2-modulated H3K27 trimethylation: inhibited
  catalase, superoxide dismutase (SOD) 1, glutathione reductase and glutathione peroxidase (GPX) 1 proteins: decreased
[5]; Pt3R cells, FIG. 5D
  CENPs protein expression: decreased
[6]
  cell growth / viability inhibitory effect in words: the only ones to exert cell viability inhibitory potential; also recorded: the most effective against the Pt3R cell lines
[6]; read-out: Cell growth inhibitory effect IC50
  IC50: 1010 nM
